In US20100279942A1, “METHODS FOR TREATING MOTOR NEURON DISEASE” (priority 2004, published 2010):
Ends that are not written are not given here.

System: F11 cells transformed with SOD1 mutant (A4T-SOD1, G85R-SOD1, G93R-SOD1) genes
Assay: Neuronal cell death test, Trypan blue exclusion assay, F11 cells transformed with SOD1 mutant genes
Type: cell-based, rat/mouse hybrid cell
Protocol: F11 cell, the hybrid cell of rat embryonic day 13 (E13) primary cultured neuronal cell with mouse neuroblastoma NTG18 cell, was cultured in Ham's F-12 medium (Life Technologies, Gaithersburg, Md.) containing 18% FBS (Hyclone, Logan, Utah) and antibiotics as previously reported (Platika D, et al., 1985, Proc Natl Acad Sci USA 82: 3499-3503; Yamatsuji T, et al., 1996, Science 272: 1349-1352; Huang P, et al., 2000, Mol Hum Reprod 6: 1069-1078; and Niikura T, et al., 2001, J Neuroscience, 21: 1902-1910).
The F11 cells (7×10^4 cells/well, 6-well plate, 12- to 16-hour culture in Ham's F-12 (18% PBS) medium) were transformed with wild-type or SOD1 mutant (A4T, G85R, and G93R) genes by lipofection (0.5 μg of each SOD1 gene; 1 μl of LipofectAMINE; 2 μl of PLUS Reagent) under serum-free conditions for 3 hours and cultured for 2 hours in Ham's F-12 (18% PBS) medium. The medium was replaced by Ham's F-12 (10% PBS) in the presence or absence of ADNF. After 72 hours of the transformation, cell mortality was measured by Trypan blue exclusion assay as previously reported (Hashimoto Y, et al., 2001, J Neurosci 21: 9235-9245; and Hashimoto Y, et al, 2001, Proc Natl Acad Sci USA 98: 6336-6341). […]
Intracellular signaling by ADNF was examined. F11 cells were transformed with pEF-BOS or SOD1 mutant (A4T-SOD1, G85R-SOD1, or G93R-SOD1) cDNA and reacted with 10 nM wortmannin (PI3 kinase inhibitor), 100 μM genistein (tyrosine kinase inhibitor), 50 μM PD98059 (MEK inhibitor), 20 μM SB203580 (p38 MAPK inhibitor), 1 μM AG490 (JAK kinase inhibitor), 5 μM KN93 (calcium/calmodulin-dependent kinase inhibitor), or 10 μM HA1004 (protein kinase A inhibitor) in the presence or absence of 100 nM ADNF. After 72 hours of the transformation, cell mortality was measured by Trypan blue exclusion assay.
The effect of KN93 on the neuroprotective action of ADNF was examined. […] After 72 hours of the transformation, cell mortality was measured by Trypan blue exclusion assay. […]

SALLRSIPA [ADNF, short peptide consisting of nine amino acid residues]
cell death inhibition (10 aM ADNF, three SOD1 mutant genes, 72 hours): hardly exhibited cell death inhibition
cell mortality induced by SOD1 mutant genes (100 fM ADNF, A4T-, G85R-, G93R-SOD1, 72 hours after transformation): completely decreased cell mortalities induced by these three types of SOD1 mutant genes to the level of the control
protective action on cell death caused by SOD1 mutant genes (ADNF at concentrations equal to or above 10 nM): complete protective action
